Assays:
Type in all cases: cell-based
[1] = system: Pythium torrulesum (IM193); assay: Inhibition of Pythium by lysozyme in PD broth, % plate coverage; conditions: for fungal coverage of the plates: end of 2 weeks
Protocol: (§1) Potato dextrose broth was prepared, poured into glass dilution bottles (100 ml each), autoclaved and allowed to cool. […] A fungal square (plug) of each culture was cut and placed in/near the center of each plate. Fungal growth was quantified by measuring the diameter of growth of each fungus while it was growing on the liquid media in each petri dish using a ruler. Each treatment was done in triplicate.
(§2) The experiment was repeated three times (three batches). The observation period for each batch was 2 weeks.
(§3) The fungal growth was expressed in % coverage of the petri dishes by the fungal patches. The calculation can be presented in the following equation:
(§4) Fungal growth (%)=(area of fungal patch/total plate area)×100

[2] = system: Pythium sylvaticom (IM195); assay: as above
Protocol: as §1, §2, §3, §4

Sclerotinia homoeocarpa = assay: Inhibition of Sclerotinia homoeocarpa in potato dextrose broth (area of growth); conditions: 2 weeks after the inoculation
Protocol: Potato dextrose broth was prepared. Fifty ml of the PD broth was added into 100 ml dilution bottles, autoclaved and cooled to room temperature. Various amounts of lysozyme, chitosan, polylysine and avidin were weighed into the bottles. Ten ml of the PD broth with or without the antimicrobials was transferred into sterile petri dishes. A plug of Sclerotinia homoeocarpa (about 6-10 mm square) grown on PD agar was placed into the center of each petri dish. These treatments were all done in triplicates. Fungal growth was monitored by measuring the area of the growth.

lysozyme: type c egg white lysozyme, enzyme of approximately 129 amino acids; commercially available from Canadian Inovatech, Inc.
fungal coverage of the plates ([1]; 50 ppm): 80% | fungal coverage of the plates ([1]; 100 ppm): 80% | fungal growth compared with 100, 50 or 0 ppm (Tukey test) ([1]; 250, 500 or 1000 ppm, p<0.05): significantly lower | fungal coverage of the plates ([1]; 250 ppm): 51% | fungal coverage of the plates ([1]; 500 ppm): 25% | fungal coverage of the plates ([1]; 1000 ppm): 14% | fungal growth (% plate coverage) ([2]; 50 ppm): 86% | fungal growth (% plate coverage) ([2]; 100 ppm): 51% | fungal growth compared with 100, 50 or 0 ppm (Tukey test) ([2]; 250, 500 or 1000 ppm, p<0.05): significantly lower | fungal growth (% plate coverage) ([2]; 250 ppm): 15% | fungal growth (% plate coverage) ([2]; 500 ppm): 7% | fungal growth (% plate coverage) ([2]; 1000 ppm): 6% | reduction of fungal growth (Sclerotinia homoeocarpa; 1000 ppm): 35% | reduction of fungal growth (Sclerotinia homoeocarpa; 2000 ppm): about 55%

From patent US20020001582A1, “Methods and compositions for inhibiting microbial growth” (priority 1999, published 2002)
